“Also recorded” adds a separate entry of the source.
Each sequence was assayed on Sap9 (assay: purified recombinant Sap9). Conditions: C. albicans, 37 °C, up to 2 h.

Question: Which fragment found does the source give for DSHAKRHHGYRRKFHEKHHSHRGY here?
Answer: Its fragment found is “amino acids 1–17; also recorded: amino acids 18–24”.

Question: DSHAKRHHGYLRKFHEKHHSHRGY was tested. Which fragment found did it give?
Answer: The fragment found was “amino acids 1–17; also recorded: amino acids 18–24”.

Question: How did the fragment found turn out when DSHARRHHGYKRKFHEKHHSHRGY was run?
Answer: The fragment found was “amino acids 1–17; also recorded: amino acids 18–24”.

Question: How did the cleaved bond turn out when DSHAKRHHGYKRKFHEKHHSHRGY was run?
Answer: The cleaved bond was “K17-H18; also recorded: R12-K13; also recorded: K13-F14; also recorded: H18-H19”.

Question: How did the fragment found turn out when DSHAKRHHGYKRRFHEKHHSHRGY was run?
Answer: The fragment found was “amino acids 1–17; also recorded: amino acids 18–24”.

Question: DSHALRHHGYKRKFHEKHHSHRGY was tested. Which fragment found did it give?
Answer: The fragment found was “amino acids 1–17; also recorded: amino acids 18–24”.
